Assay results: the METLIN SMRT retention time set (Domingo-Almenara et al. 2019)

Test: gradient 5% acetonitrile 3 min, to 50% in 2 min, to 85% in 15 min, held 3 min, 100 µL/min
Settings: column: Zorbax Extend-C18 2.1 x 50 mm; eluents: water / acetonitrile, 0.1% formic acid
Procedure, shortened: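 Values are retention times taken from adduct peaks that software picked and an analyst inspected. The pure standards were run as mixtures of ~100 molecules on HPLC linked to a quadrupole time-of-flight mass spectrometer, in positive and negative ionization mode. A Zorbax Extend-C18 column (2.1 × 50 mm, 1.8 μm) was used at 100 μL/min with water and acetonitrile, each including 0.1% formic acid.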

| RP-LC retention time [s] | SMILES |
| --- | --- |
| 1050 | CCc1nnc2ccc(-c3noc(-c4ccc(Cl)cc4)n3)cn12 |
| 923 | Cc1ccc(CNC(=O)c2nnc(-c3ccc(S(=O)(=O)N4CCC(C)CC4)cc3)o2)o1 |
| 693 | Cn1c(C2CCN(C(=O)Nc3cccc(Cl)c3)CC2)cc(=O)n2nccc12 |
| 1300 | CCc1ccc(S(=O)(=O)N2CCCC2c2nc(-c3cccc(Cl)c3)no2)cc1 (stereo not drawn) |
| 976 | O=C(NCCCc1ccccc1)C1CCN(c2ncnc3c2oc2ccccc23)CC1 |
| 918 | O=C(NC1CC1)C1CCN(c2nc3ccc(-c4cccc(F)c4)nc3s2)CC1 |
| 751 | COC(=O)c1ccc2c(=O)n(-c3ccc(OC)c(OC)c3)c(N3CCCC3)nc2c1 |
| 838 | COc1ccc(N2C=C(C(=O)N3CCCC3)S(=O)(=O)c3ccc(F)cc32)cc1Cl |
| 746 | CCN1CCCC1CNS(=O)(=O)c1ccccc1-c1nc(-c2ccc(C)cc2)no1 (stereo not drawn) |
| 896 | CCOc1ccccc1C(=O)NC(c1ccccc1)c1nnc(N2CCCC2)o1 (stereo not drawn) |
| 1260 | CN(C)c1ccc(/C=C2\CCc3ccccc3C2=O)cc1Br |
| 1140 | Cc1nc2cc(-c3noc(-c4ccccc4Br)n3)ccc2o1 |
| 661 | Cc1ccccc1NC(=O)Nc1c(-c2ccc(F)cc2)nc2ccccn12 |
| 998 | CCN1C(=O)c2cccnc2Sc2cc(NC(=O)c3ccc(C(C)C)cc3)ccc21 |
| 666 | O=C(CN1CCC2(CC1)N=C(c1ccc(F)cc1)C(=O)N2)Nc1ccc(F)cc1F |
| 790 | CCN(CC)C(=O)Cn1nc2cc(C)nc(-c3cccc(Cl)c3)n2c1=O |
| 1350 | CC(C)n1c(=O)oc2cc(-c3noc(-c4ccc(Br)cc4)n3)ccc21 |
| 605 | Cc1cccc(CN2CC(n3cc(COc4ccc(F)cc4)nn3)C2)c1 |
| 720 | O=C(c1c(F)cccc1F)N1CCN=C1N1CCN(c2ccccc2F)CC1 |
| 644 | Cc1oc2c(c1C(=O)Nc1ccc(Br)cc1)C1=NCCN1C=N2 |
| 807 | CCN1c2cc(F)ccc2C(=O)NC12CCN(C(=O)c1ccc(C)cc1)CC2 |
| 682 | CCCNc1cc(N2CCC(CCC(=O)Nc3ccc(OC)cc3)CC2)ncn1 |
| 651 | CC(C)NC(=O)c1ccc2c(c1)ncn2CCNC(=O)Nc1ccc(Br)cc1F |
| 852 | COC(=O)c1cn(CC(=O)NCc2ccc3c(c2)OCCCO3)c2ccccc12 |
| 618 | CC1CN=C2C=C(N3CCN(C(=O)Nc4ccccc4Cl)CC3)N=CN21 (stereo not drawn) |

| RP-LC retention time [s] | SMILES |
| --- | --- |
| 784 | O=C(Nc1ccccc1)N1CCC(n2cnc3c(Cl)cccc3c2=O)CC1 |
| 968 | O=C(Cn1cccc1-c1nnc(C2CCC2)o1)Nc1ccc(Cl)cc1 |
| 1090 | CSc1ccc(CCNC(=O)c2nnc(-c3ccc(S(=O)(=O)N4CCCCC4)cc3)o2)cc1 |
| 964 | CC(C)N1C(=O)c2cccnc2Sc2cc(NC(=O)c3ccc(Cl)cc3)ccc21 |
| 849 | Cc1c(C(=O)NC2CC2)cnn1-c1ccc(-c2nc(C(C)C)no2)cn1 |
| 679 | COc1cccc(Nc2cc(C(=O)N3CCSCC3)nc3c(OC)cccc23)c1 |
| 1050 | Cc1ccc(C)c(-c2cc3c4nn(CC(=O)Nc5cc(F)ccc5F)c(=O)n4ccn3n2)c1 |
| 653 | CCOc1ccc(NC(=O)N(Cc2cccs2)C2CCN(CC)CC2)cc1 |
| 596 | O=C(Cn1c(-c2cccs2)nc2ccccc21)NC1CC1 |
| 976 | CCOC(=O)c1[nH]c(C)c(CN(Cc2ccco2)C(=O)Nc2ccccc2F)c1C |
| 805 | CCOc1ccccc1CNC(=O)Cc1nnc(-c2cccc(F)c2)o1 |
| 1040 | Cc1cc(Br)ccc1NC(=O)Cc1csc(Nc2ccc(Cl)cn2)n1 |
| 627 | CC1=C(C(=O)O)N2C(=O)C(NC(=O)[C@H](N)c3ccccc3)[C@H]2SC1 (stereo partly drawn) |
| 834 | COc1ccc(NC(=O)N2CCCC2c2nc(-c3ccccc3OC)no2)cc1F (stereo not drawn) |
| 884 | CCOc1ccc(C(=O)N2CCN(c3ccc(-c4nc(C)cs4)cn3)CC2)cc1 |
| 840 | COC(=O)c1cccc(NC(=O)c2nc(C)oc2C)c1 |
| 1020 | Cc1ccc(S(=O)(=O)N2CCc3c(c(-c4nnc(-c5ccccc5)o4)nn3C)C2)cc1C |
| 776 | C=CCNC(=O)c1cn(-c2ncccc2-c2nc(C(C)(C)C)no2)cn1 |
| 568 | CCNC(=O)c1cc(C)nc2c(C)cccc12 |
| 613 | C=CCNC(=O)C1CCN(Cc2noc(-c3ccc(F)cc3)n2)CC1 |
| 901 | CC(C)N1C(=O)c2cccnc2Sc2cc(NC(=O)c3cccc(F)c3)ccc21 |
| 827 | Cn1ccc2ccn(CC(=O)Nc3cccc(Br)c3)c(=O)c21 |
| 1310 | CCOc1nc2ccccc2nc1N1CCCC(C(=O)N2CCc3ccccc3C2)C1 (stereo not drawn) |
| 831 | Cc1ccc(C(=O)N2CCN(c3cc(-c4cccs4)[nH]n3)CC2)c(C)c1 |

The remaining lines, values behind:

| SMILES | RP-LC retention time [s] |
| --- | --- |
| CCN1CCC(N(Cc2cccs2)C(=O)Nc2cc(OC)cc(OC)c2)CC1 | 651 |
| CCN(Cc1ccccc1)C(=O)[C@H]1[C@@H](c2cc(OC)c(OC)c(OC)c2)c2cc3c(cc2[C@@H](O)[C@@H]1CO)OCO3 | 770 |
| CC(C)OC(=O)C(C(=O)OC(C)C)=C1SC=CS1 | 1110 |
| COCCN(Cc1ccco1)c1nc(-c2ccc(OC)cc2)nc2ccccc12 | 792 |
| O=C(CCc1nc2ccccc2n(CC(=O)Nc2cc(F)ccc2F)c1=O)NCc1ccccc1 | 884 |
| Cc1nc([C@@H]2CN(C(=O)CCc3c(C)n[nH]c3C)C[C@H]2C(N)=O)n[nH]1 | 523 |
| O=C(Cn1c(=O)c2cc(-c3cccs3)nn2c2ncccc21)NCc1ccc(F)cc1 | 821 |
| CC(=O)N1CCC(C(=O)N(C)C2CCc3nn(C)c(=O)n3CC2)CC1 (stereo not drawn) | 569 |
| CCc1nc2ccccc2c(=O)n1Cc1noc(COc2ccc(OC)cc2)n1 | 921 |
| CCOc1cc(-c2nc(C3CC(=O)N(c4ccc(OC)cc4)C3)no2)cc(OCC)c1OCC (stereo not drawn) | 1040 |
| Fc1cccc(Cc2noc(-c3nc(-c4ccccc4)no3)n2)c1 | 1160 |
| CC(C)C(=O)NCCn1c(=O)n(Cc2ccccc2)c2cccnc21 | 714 |
| CCOc1ccc(C2Cn3nnc(-c4nc(-c5ccc(C)c(C)c5)no4)c3CO2)cc1 (stereo not drawn) | 1290 |
| CC(C)(C)NC(=O)N1C[C@@H]2CN(S(=O)(=O)c3cccc(F)c3)C[C@H](C1)O2 | 765 |
| CC(=O)N1CCc2ccccc2C1C(=O)NCc1cc(F)cc(F)c1 (stereo not drawn) | 764 |
| CCc1cccc(NS(=O)(=O)c2cc3n(c2)CCCN(C)C3=O)c1 | 728 |
| CN(CCc1noc(COc2ccccc2F)n1)C(=O)c1ccccc1F | 889 |
| Cc1ccc(Cn2nc3ccc(S(=O)(=O)N4CCC(C)CC4)cn3c2=O)cc1 | 1060 |
| COc1ccc(OC)c(NC(=O)C2(c3cccs3)CCOCC2)c1 | 917 |
| CC(C)NC(C)Cc1ccc(I)cc1 (stereo not drawn) | 746 |

| SMILES | RP-LC retention time [s] |
| --- | --- |
| Cc1ccc(NS(=O)(=O)c2cc(-c3nc(C(C)(C)C)cs3)cs2)c(F)c1 | 1260 |
| O=S(=O)(c1ccc2nc(N3CCN(C4CCCCC4)CC3)ccc2c1)N1CCCCC1 | 734 |
| COc1ccc(C2CC(=O)c3cnc(N4CCN(c5ccccn5)CC4)nc3C2)cc1OC (stereo not drawn) | 633 |
| CC(C)OC(=O)Cn1c(C2CC(=O)N(Cc3ccccc3)C2)nc2ccccc21 (stereo not drawn) | 799 |
| CCc1nn(C)c(=O)c2cc(S(=O)(=O)NC(C)c3ccccc3)cn12 (stereo not drawn) | 870 |
| O=C(NCC(O)(c1ccccc1)C(F)(F)F)NC1CCCCC1 (stereo not drawn) | 879 |
| Cc1noc(C)c1S(=O)(=O)N1CC(c2nnc(-c3ccncc3)o2)C2(CCOCC2)C1 (stereo not drawn) | 663 |
| CCn1c(N2CCCC(C(=O)NCC3CCN(Cc4ccccc4C)CC3)C2)cc(=O)n(C)c1=O (stereo not drawn) | 643 |
| Cn1c(=O)sc2cc(S(=O)(=O)N3CCC(C(=O)NCCN4CCCCCC4)CC3)ccc21 | 623 |
| COc1cccc(NC(=O)N2CCC3(C2)C(=O)Nc2ccc(OC)cc23)c1 (stereo not drawn) | 701 |
| O=C(Cc1nnc(-c2ccc3ncccc3c2)o1)N1CCN(C2CCCCC2)CC1 | 574 |
| O=C(CCCn1nc(-c2ccc(F)cc2)ccc1=O)Nc1nc2ccccc2[nH]1 | 584 |
| CC(C)CNC(=O)C1CCN(c2cnn(Cc3ccccc3)c(=O)c2)CC1 | 745 |
| O=c1c2cc(-c3ccc(F)cc3)nn2ccn1Cc1noc(CN2CCCCCCC2)n1 | 719 |
| c1ccc(C2CNCc3ccccc32)cc1 (stereo not drawn) | 698 |
| Cn1cc(CCNS(=O)(=O)c2cccc3nsnc23)c2cccnc21 | 671 |
| Cc1ccc(Cl)cc1N1C(=O)CN(S(C)(=O)=O)CC1(C)C(=O)NCc1ccccc1 (stereo not drawn) | 854 |
| CCOc1ccc(N(CC)C(=O)C(=O)c2c[nH]c3ccccc23)cc1 | 852 |
| Cc1ccc(CN(CC(=O)N2CCNCC2)C(=O)c2sccc2C)cc1C | 669 |
